Test results: patent publication US7601746B2 (Shionogi & Co., Ltd., priority 2003, dated 2009)

Molecular target: T1, human TPO receptor (hTPOR) (Homo sapiens, UniProt P40238)
T1 construct: expressed in transfected cells; host or cells: BaF-B03 (murine IL-3 dependent cell line)
T1 sequence (P40238 26-635): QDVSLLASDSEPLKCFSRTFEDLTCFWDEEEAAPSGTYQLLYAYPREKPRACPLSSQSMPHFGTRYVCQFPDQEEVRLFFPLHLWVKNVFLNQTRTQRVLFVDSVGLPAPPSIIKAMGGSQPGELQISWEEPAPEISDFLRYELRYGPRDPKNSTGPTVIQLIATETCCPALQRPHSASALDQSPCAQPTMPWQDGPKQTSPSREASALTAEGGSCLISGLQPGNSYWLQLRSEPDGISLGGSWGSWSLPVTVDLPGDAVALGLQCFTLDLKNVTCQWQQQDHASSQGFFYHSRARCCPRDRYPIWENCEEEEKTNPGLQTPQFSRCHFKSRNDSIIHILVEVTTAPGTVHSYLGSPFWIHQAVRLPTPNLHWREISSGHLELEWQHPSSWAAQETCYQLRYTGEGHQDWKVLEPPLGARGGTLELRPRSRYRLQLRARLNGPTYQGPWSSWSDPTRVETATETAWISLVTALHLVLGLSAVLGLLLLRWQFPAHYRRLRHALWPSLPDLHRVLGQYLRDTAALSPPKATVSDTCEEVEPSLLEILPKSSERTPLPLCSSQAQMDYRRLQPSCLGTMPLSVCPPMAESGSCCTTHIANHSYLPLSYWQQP
Test: Thrombopoietic activity: proliferation of TPO dependent BaF/hTPOR cells (WST-1, absorbance at 450 nm)
Format: cell-based
Conditions: 20 h + 4 h WST-1, ED50 = half concentration of the concentration showing the maximum thrombopoietic activity
Outline: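 Proliferation read-out: WST-1 absorbance at 450 nm after 20 h compound exposure plus 4 h reagent, using IL-3-deprived BaF/hTPOR cells (5×10^4 per well) dependent on human TPO receptor signalling. ED50 defined as half the concentration producing maximal activity.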

EC50 (Table 1) | EC50 (Table 2) | SMILES
12.9 nM |  | COc1c(CCOCCC(C)C)cccc1-c1csc(NC(=O)c2cc(F)c(/C=C(\C)C(=O)O)c(F)c2)n1 [Compound B1954]
11.7 nM |  | COc1c(CCOCCC(C)C)cccc1-c1csc(NC(=O)c2cc(Cl)c(/C=C(\C)C(=O)O)c(Cl)c2)n1 [Compound B1955]
15.1 nM |  | CO/C(=C\c1c(F)cc(C(=O)Nc2nc(-c3cccc(CCOCCC(C)C)c3OC)cs2)cc1F)C(=O)O [Compound B1956]
12.8 nM |  | COc1c(CCOCC2CCCCC2)cccc1-c1csc(NC(=O)c2cc(F)c(/C=C(\C)C(=O)O)c(F)c2)n1 [Compound B1957]
7.57 nM |  | CCC(CC)COCCc1cccc(-c2csc(NC(=O)c3cc(Cl)c(/C=C(\C)C(=O)O)c(Cl)c3)n2)c1OC [Compound B1958, (E)-3-[2,6-dichloro-4-(4-{3-[2-(2-ethylbutyloxy)ethyl]-2-methyloxyphenyl}thiazol-2-ylcarbamoyl)phenyl]-2-methylacrylic acid]
11.3 nM |  | CCC(CC)COCCc1cccc(-c2csc(NC(=O)c3cc(F)c(/C=C(\C)C(=O)O)c(F)c3)n2)c1OC [Compound B1959, (E)-3-[4-(4-{3-[2-(2-ethylbutyloxy)ethyl]-2-methyloxyphenyl}thiazol-2-ylcarbamoyl)-2,6-difluorophenyl]-2-methylacrylic acid]
10.1 nM |  | CCC(CC)COCCc1cccc(-c2csc(NC(=O)c3cc(Cl)c(/C=C(\OC)C(=O)O)c(Cl)c3)n2)c1OC [Compound B1960, (Z)-3-[2,6-dicholoro-4-(4-{3-[2-(2-ethylbutyloxy)ethyl]-2-methyloxyphenyl}thiazol-2-ylcarbamoyl)phenyl]-2-methyloxyacrylic acid]
 | 28.6 nM | COc1c(CCOCCCCCl)cccc1-c1csc(NC(=O)c2cc(Cl)c(/C=C(\C)C(=O)O)c(Cl)c2)n1 [Compound B1963, (E)-3-[2,6-dichloro-4-(4-{3-[2-(4-chlorobutyloxy)ethyl]-2-methyloxyphenyl}thiazol-2-ylcarbamoyl)phenyl]-2-methylacrylic acid]
12.1 nM |  | CCCCCCCOCc1cccc(-c2csc(NC(=O)c3cc(F)c(/C=C(\C)C(=O)O)c(F)c3)n2)c1OC [Compound B1990, (E)-3-{2,6-difluoro-4-[4-(3-heptyloxymethyl-2-methyloxyphenyl)thiazol-2-ylcarbamoyl]phenyl}-2-methylacrylic acid]
13.2 nM |  | CCCCCCCOCc1cccc(-c2csc(NC(=O)c3cc(Cl)c(/C=C(\C)C(=O)O)c(Cl)c3)n2)c1OC [Compound B1991, (E)-3-{2,6-dichloro-4-[4-(3-heptyloxymethyl-2-methyloxyphenyl)thiazol-2-ylcarbamoyl]phenyl}-2-methylacrylic acid]
13.1 nM |  | CCCCCCOCc1cccc(-c2csc(NC(=O)c3cc(F)c(/C=C(\C)C(=O)O)c(F)c3)n2)c1OC [Compound B1992, (E)-3-{2,6-difluoro-4-[4-(3-hexyloxymethyl-2-methyloxyphenyl)thiazol-2-ylcarbamoyl]phenyl}-2-methylacrylic acid]
13.9 nM |  | CCCCCCOCc1cccc(-c2csc(NC(=O)c3cc(Cl)c(/C=C(\C)C(=O)O)c(Cl)c3)n2)c1OC [Compound B1993, (E)-3-{2,6-dichloro-4-[4-(3-hexyloxymethyl-2-methyloxyphenyl)thiazol-2-ylcarbamoyl]phenyl}-2-methylacrylic acid]
14.2 nM |  | CCCCCCOCc1cccc(-c2csc(NC(=O)c3cc(Cl)c(/C=C(\OC)C(=O)O)c(Cl)c3)n2)c1OC [Compound B1994, (Z)-3-{2,6-dichloro-4-[4-(3-hexyloxymethyl-2-methyloxyphenyl)thiazol-2-ylcarbamoyl]phenyl}-2-methyloxyacrylic acid]
10.9 nM |  | CCCCOCc1cccc(-c2csc(NC(=O)c3cc(Cl)c(/C=C(\C)C(=O)O)c(Cl)c3)n2)c1OC [Compound B1995, (E)-3-{4-[4-(3-butyloxymethyl-2-methyloxyphenyl)thiazol-2-ylcarbamoyl]-2,6-dichlorophenyl}-2-methylacrylic acid]

Further lines, the molecule ahead of its results:

SMILES | EC50 (Table 1) | EC50 (Table 2)
CCCCCCOCCc1cccc(-c2csc(NC(=O)c3cc(F)c(/C=C(\OC)C(=O)O)c(F)c3)n2)c1OC [Compound B1927, (Z)-3-(2,6-difluoro-4-{4-[3-(2-hexyloxyethyl)-2-methyloxyphenyl]thiazol-2-ylcarbamoyl)phenyl)-2-methyloxyacrylic acid] | 19.4 nM | 
CCCCCCOCCc1cccc(-c2csc(NC(=O)c3cc(Cl)c(/C=C(\C)C(=O)O)c(Cl)c3)n2)c1OC [Compound B1928, (E)-3-(2,6-dichloro-4-{4-[3-(2-hexyloxyethyl)-2-methyloxyphenyl]thiazol-2-ylcarbamoyl)phenyl)-2-methylacrylic acid] | 12.6 nM | 
CCCCCCOCCc1cccc(-c2csc(NC(=O)c3cc(Cl)c(/C=C(\OC)C(=O)O)c(Cl)c3)n2)c1OC [Compound B1929, (Z)-3-(2,6-dichloro-4-{4-[3-(2-hexyloxyethyl)-2-methyloxyphenyl]thiazol-2-ylcarbamoyl)phenyl)-2-methyloxyacrylic acid] |  | 25.8 nM
COc1c(COCC(C)(C)C)cccc1-c1csc(NC(=O)c2cc(F)c(/C=C(\C)C(=O)O)c(F)c2)n1 [Compound B1933, (E)-3-(4-{4-[3-(2,2-dimethylpropyloxymethyl)-2-methyloxyphenyl]thiazol-2-ylcarbamoyl}-2,6-difluorophenyl)-2-methylacrylic acid] | 7.88 nM | 
COc1c(COCCC(C)(C)C)cccc1-c1csc(NC(=O)c2cc(F)c(/C=C(\C)C(=O)O)c(F)c2)n1 [Compound B1934, (E)-3-(4-{4-[3-(3,3-dimethylbutyloxymethyl)-2-methyloxyphenyl]thiazol-2-ylcarbamoyl}-2,6-difluorophenyl)-2-methylacrylic acid] | 13 nM | 
CO/C(=C\c1c(F)cc(C(=O)Nc2nc(-c3cccc(COCCC(C)(C)C)c3OC)cs2)cc1F)C(=O)O [Compound B1935, (Z)-3-(4-{4-[3-(3,3-dimethylbutyloxymethyl)-2-methyloxyphenyl]thiazol-2-ylcarbamoyl}-2,6-difluorophenyl)-2-methyloxyacrylic acid] |  | 25.4 nM
CO/C(=C\c1c(Cl)cc(C(=O)Nc2nc(-c3cccc(COCCC(C)(C)C)c3OC)cs2)cc1Cl)C(=O)O [Compound B1937, (Z)-3-(2,6-dichloro-4-{4-[3-(3,3-dimethylbutyloxymethyl)-2-methyloxyphenyl]thiazol-2-ylcarbamoyl}phenyl)-2-methyloxyacrylic acid] |  | 23.1 nM
COc1c(COCCCC(C)C)cccc1-c1csc(NC(=O)c2cc(F)c(/C=C(\C)C(=O)O)c(F)c2)n1 [Compound B1938] | 12.7 nM | 
COc1c(COCCCC(C)C)cccc1-c1csc(NC(=O)c2cc(Cl)c(/C=C(\C)C(=O)O)c(Cl)c2)n1 [Compound B1940] | 18.8 nM | 
CO/C(=C\c1c(Cl)cc(C(=O)Nc2nc(-c3cccc(COCCCC(C)C)c3OC)cs2)cc1Cl)C(=O)O [Compound B1941] |  | 24.1 nM
COc1c(CCCOCC2CC2)cccc1-c1csc(NC(=O)c2cc(Cl)c(/C=C(\C)C(=O)O)c(Cl)c2)n1 [Compound B1945, (E)-3-(2,6-dichloro-4-{4-[3-(3-cyclopropylmethyloxypropyl)-2-methyloxyphenyl]thiazol-2-ylcarbamoyl}phenyl)-2-methylacrylic acid] | 19.3 nM | 
COc1c(CCCOCC2CCCC2)cccc1-c1csc(NC(=O)c2cc(F)c(/C=C(\C)C(=O)O)c(F)c2)n1 [Compound B1948, (E)-3-(4-{4-[3-(3-cyclopentylmethyloxypropyl)-2-methyloxyphenyl]thiazol-2-ylcarbamoyl}-2,6-difluorophenyl)-2-methylacrylic acid] | 10.9 nM | 
COc1c(CCCOCC2CCCC2)cccc1-c1csc(NC(=O)c2cc(Cl)c(/C=C(\C)C(=O)O)c(Cl)c2)n1 [Compound B1949, (E)-3-(2,6-dichloro-4-{4-[3-(3-cyclopentylmethyloxypropyl)-2-methyloxyphenyl]thiazol-2-ylcarbamoyl}phenyl)-2-methylacrylic acid] | 13.2 nM | 
CO/C(=C\c1c(Cl)cc(C(=O)Nc2nc(-c3cccc(CCCOCC4CCCC4)c3OC)cs2)cc1Cl)C(=O)O [Compound B1951, (Z)-3-(2,6-dichloro-4-{4-[3-(3-cyclopentylmethyloxypropyl)-2-methyloxyphenyl]thiazol-2-ylcarbamoyl}phenyl)-2-methyloxyacrylic acid] |  | 22.3 nM
CCCCCCCOCCc1cccc(-c2csc(NC(=O)c3cc(F)c(/C=C(\C)C(=O)O)c(F)c3)n2)c1OC [Compound B1952, (E)-3-(2,6-difluoro-4-{4-[3-(2-heptyloxyethyl)-2-methyloxyphenyl]thiazol-2-ylcarbamoyl}phenyl)-2-methylacrylic acid] | 10.1 nM | 
CCCCCCCOCCc1cccc(-c2csc(NC(=O)c3cc(F)c(/C=C(\OC)C(=O)O)c(F)c3)n2)c1OC [Compound B1953, (Z)-3-(2,6-difluoro-4-{4-[3-(2-heptyloxyethyl)-2-methyloxyphenyl]thiazol-2-ylcarbamoyl}phenyl)-2-methyloxyacrylic acid] | 10.1 nM | 
